Laboratory results as given in patent US20250011876A1, “EXTRACELLULAR RNA SIGNATURES OF MUTANT KRAS(G12C) CANCERS” (The Regents of the University of California, priority 2021, published 2025).

Key:
H358 3D spheroids = test: H358 spheroid size/area; type: cell-based; conditions: 0.1 μM AMG 510
[1] = tested on: EVs secreted by H358 cells; test: Nanoparticle Tracking Analysis of EV size, ExoTIC isolation; type: cell-based; conditions: ExoTIC-isolated EVs, H358, AMG 510 treatment
Source text: To characterize exRNA profiles, EVs were isolated using two orthogonal approaches: affinity column extraction (ExoRNeasy) and size-based filtration (Exosome Total Isolation Chip: ExoTIC). Each EV isolation method captured distinct EV populations as determined by Nanoparticle Tracking Analysis (NTA) (FIGS. 5A and 5B) 18.19. The ExoTIC platform captured a low yield of EVs that fell within a size range matching that of exosomes (FIG. 5A).
The exRNA landscape varies based on EV subpopulations isolated by different approaches. We sought to investigate two orthogonal approaches to EV isolation, which yielded distinct EV populations with variable exRNA content. This highlights the importance of upstream EV isolation procedures before the exRNA sequencing pipeline. […] The significant shift in the maxima of the EV size distribution corresponding to AMG 510 treatment was accompanied by local maxima around particles of even smaller dimensions. Further EV size-fractionated exRNA sequencing will be necessary to determine the contribution of the different EV subpopulations to our exRNA data.
RNA Isolation & Purification. Total bulk RNA was isolated from H358 cells using Quick-RNA Mini-Prep kit (Zymogen). All RNA was quantified via NanoDrop-8000 Spectrophotometer. […] Extracted exosomal RNA were quantified via Qubit RNA HS assay kit (Thermo). […]

[2] = tested on: KRAS and phosphorylated ERK in NCI-H358 cells; conditions: cited from earlier work

| Compound | decrease of 3D spheroid size with respect to control (H358 3D spheroids) [%] | EV size profile after treatment [1] | time at which abundance of KRAS and pERK begin to recover [2] [hours] |
| --- | --- | --- | --- |
| C=CC(=O)N1CCN(c2nc(=O)n(-c3c(C)ccnc3C(C)C)c3nc(-c4c(O)cccc4F)c(F)cc23)[C@@H](C)C1 [AMG 510, Sotorasib] | 20 | around 150 nm |  |
| C=CC(=O)N1CCN(c2ncnc3c(F)c(-c4c(O)cccc4F)c(Cl)cc23)CC1 [ARS1620] |  |  | 24 |
